# From US10519179B2, “Highly efficient NRF2 activators-co-releasing molecule hybrids, their use in the treatment of inflammatory or cardiovascular diseases and their process of preparation” (Centre National de la Recherche Scientifique, priority 2015, dated 2019)
# “Also recorded” adds a separate entry of the source. Counter-ions that a name gives are not always drawn.
# Experiments:
# HO-1 [1] = assay: HO-1 protein expression in human THP-1 cells; assay type: cell-based
# Protocol: (§1) Human monocytes (THP-1 cells) were cultured in RPMI 1640-Glutamax medium supplemented with 1% penicillin/streptomycin, 1% sodium pyruvate and 10% fetal bovine serum (RPMIc). Cells at confluence were washed with PBS and treated with compound C at different concentrations for 6 h according to the experimental protocol. Compound C was dissolved in DMSO at 0.1% as a final concentration in complete medium.
# IL-1β = IL-1β production in LPS-treated human THP-1 cells (ELISA); assay type: cell-based; settings: 5 μM, 24 h
# Protocol: IL-1β production was measured in the supernatants of human THP-1 cells treated with LPS (100 μg/ml) in the presence or absence of 5 μM comp. C, DMF or CORM-401. After 24 h incubation, the medium was collected and IL-1β levels quantified using an ELISA kit (R&D Systems) following the manufacturer's instructions.
# human THP-1 cells [2] = assay: cytotoxicity (LDH assay) in THP-1 cells; assay type: cell-based; settings: 24 h, increasing concentrations, up to 10 μM
# Protocol: (§2) Cytotoxicity was evaluated in THP-1 cells and H9c2 cardiomyocytes 24 h after incubation with increasing concentrations of compound C.
# as §1, with “concentrations and” for “concentrations”, “different periods of time” for “6 h”
# (§3) Cell viability was assessed using the previously described LDH assay.
# [3] = blood HbCO levels in mice after oral gavage; assay type: in vivo; settings: oral gavage, 1, 3 and 6 hours after administration
# Protocol: Male C57 BL/6J mice were used for all experiments (Janvier Labs, France). Animals received at 8 weeks of age were placed on a standard diet and allowed to acclimatize for 2 weeks on a 12 hr light/dark cycle. All experiments were performed in compliance with INSERM guidelines for the use of animals and approved by the institutional review board at Paris-Est Creteil Val de Marne University. Mice were administered by oral gavage with a single dose of the following: 1) 200 μl of sesame oil (vehicle, control group); 2) Compound A (3 mg in 200 μl sesame oil); 3) Compound B (3 mg in 200 μl sesame oil).
# Mice were sacrificed 6 hr after treatment by cervical dislocation. Livers, lungs, hearts and brains were excised and snap frozen for western blot analysis. Tissue samples were homogenized in lysis buffer (150 mM sodium chloride, 1.0% Triton X-100, 0.5% sodium deoxycholate 0.1% sodium dodecyl sulphate, 50 mM Tris, pH 8.0). Lysates were centrifuged for 20 min at 15,000 g at 4° C. and supernatants were collected and stored at −80° C. for further analysis. […] The release of CO from compounds of the invention was assessed spectrophotometrically by measuring the conversion of deoxyhemoglobin to carbonmonoxy hemoglobin (HbCO). […] The percent of HbCO was then calculated based on the absorbances at 420 and 432 nm with the reported extinction coefficients for mouse blood. […]
# human THP-1 cells [4] = assay: CO delivery to human THP-1 cells loaded with COP-1; assay type: cell-based; settings: 10 μM, 15 min at 37° C.
# Protocol: To detect whether the compounds delivered CO to cells, human THP-1 cells were initially suspended in Dulbecco Phosphate Buffer Solution (+Ca, +Mg; Gibco® Cell Culture, Life Technologies) and then treated with compounds at a concentration of 10 μM for 15 min at 37° C. in 5 ml polypropylene round-bottom tubes (BD Falcon, Dominique Dutscher). Cells were then incubated for 30 min with 1 μM COP-1. Intracellular fluorescence of COP-1 was measured using a CyAnTM ADP LX7 Analyzer (Beckman Coulter) as previously reported.
# H9c2 cardiomyocytes = assay: cytotoxicity (LDH assay) in H9c2 cardiomyocytes; assay type: cell-based, rat; settings: 24 h, 20% or 5% oxygen, concentrations used
# Protocol: as §2
# H9c2 cardiomyocytes were cultured as previously (Example 4.2).
# as §3
# Nrf2 [5] = assay: Nrf2 expression in human THP-1 cells; assay type: cell-based
# Protocol: as §1
# HO-1 [6] = assay: cardiac HO-1 mRNA expression in mice after oral gavage; assay type: in vivo; settings: 40 mg/kg oral gavage, 6 h
# Protocol: (§4) FIG. 11 represents blood HbCO levels in vivo after compound C were administered to mice by oral gavage (FIG. 11A); mRNA expression of Nrf2 dependent genes (HO-1 and NQO-1) in the heart of mice after HbCO after administration of compound C (40 mg/kg) by oral gavage (FIG. 11B).
# HO-1 [7] = assay: HO-1 protein expression in BV2 microglia (Western blot); assay type: cell-based, mouse; settings: cells and concentration not given
# Protocol: (§5) Cells were grown in an atmosphere of 5% CO2 at 37° C. in either 75 cm^2 flasks, 100 mm diameter Petri dishes, 6- or 24-well plates containing medium supplemented with 10% fetal bovine serum (Lonza) and penicillin (100 U·mL^−1)/streptomycin ([…]; Life Technologies). BV2 mouse microglial cells were grown in RPMI-1640 containing 2 g·L^−1 glucose and supplemented with 0.3 g·L^−1 1-glutamine.
# To determine HO-1 protein expression, BV2 microglia were incubated with 10 μM hybrids (compounds) for 6 h. […] Protein concentrations were measured using a Pierce BCA Protein Assay kit (Thermo Scientific).
# (§6) Whole cell lysates (20 μg protein/sample) were resolved on 12% acrylamide gels, respectively, and proteins transferred to polyvinylidene difluroride membranes (Millipore, Brussels, Belgium). […] Bands were detected with chemiluminescent substrates (Pierce ECL®, Thermo Scientific or RevelBIOt® Intense, Ozyme) and images captured using a G:Box F3 Imagery Station and GeneSys Software (Syngene, Cambridge, UK). […]
# NQO1 = assay: cardiac NQO1 mRNA expression in mice after oral gavage; assay type: in vivo; settings: 40 mg/kg oral gavage, 24 h
# Protocol: as §4
# HO-1 [8] = assay: HO-1 protein expression in H9c2 cardiomyocytes; assay type: cell-based, rat; settings: 1 μM to 10 μM, 6 h or 24 h, 20% or 5% O2
# Protocol: The assessment of HO-1 induction by western blotting was performed as previously (Example 4.1). H9C2 cells rat cardiomyocytes were cultured in Dubelcco's Modified Eagle Medium containing: glucose 4.5 g/l, L-glutamine 2 mM, pyruvate) supplemented with fetal bovine serum (FBS) 10%, a mixture of penicillin (10,000 IU/ml)/streptomycin (10 mg/ml) (Gibco Life Technologies) and sodium Pyruvate 1% (Gibco Life Technologies). Cells were grown and subcutlured either in a normal incubator at 20% O2 or in a dedicated chamber in which the O2 levels was kept constantly at 5%, a value which reflects more closely the O2 concentrations found in vivo. For the adaptation of cells at 5 O2, cells were grown and passaged at least twice before conducting any experiment.
# H9c2 cardiomyocytes were then incubated with increasing concentration of compound C (1 μM to 10 μM) for 6 h or 24 h either at 20% or 5% O2.
# [9] = CO release in COP-1 fluorescence assay in buffer; assay type: physicochemical; settings: in vitro conditions described in the examples, not specified further
# Protocol: The release of CO from hybrids was assessed using COP-1, a fluorescent probe sensitive to CO. The fluorescence intensity of COP-1 (2 μM, Δex=475 nm) in buffer was measured in a cuvette to obtain a background fluorescence spectrum and spectra were then recorded immediately after addition of 50 μM tested compounds. The mean fluorescence intensity (MFI) of 3 independent reading was calculated using the fluorescence intensity values recorded at 507 nm after 60 min.
# Nrf2 [10] = assay: nuclear expression of Nrf2 in BV2 microglia (Western blot); assay type: cell-based, mouse; settings: cells and concentration not given
# Protocol: as §5
# BV2 microglia were incubated with 10 μM of hybrids for 2 h to assess nuclear translocation of Nrf2. Nuclear fractions were isolated using a Nuclear Extract Kit from Active Motif (La Hulpe, Belgium), according to the manufacturer's instructions, and stored at −80° C. Protein concentrations were measured using a Pierce BCA Protein Assay kit (Thermo Scientific).
# as §6
# BV2 microglia cells = assay: reduced glutathione (GSH), DTNB colorimetric assay in BV2 microglia; assay type: cell-based, mouse; settings: 10 μM
# Protocol: The 5,5′ dithiobis-(2-nitrobenzoic acid) (DTNB) colorimetric assay was used for the measurement of reduced glutathione (GSH). Briefly, BV2 microglia cells were seeded in 6-well-plates and incubated with 10 μM hybrids and dimethyl fumarate (DMF, positive control) for 3, 6 and 24 h. At the end of the incubation period, cells were initially washed with phosphate buffers solution, then scraped in 600 μL of 2% (w/v) 5-sulposalicylic acid solution and transferred to a 1.5 ml microtube, and finally centrifuged for 5 min at 10,000×g. An aliquot of the supernatant (500 μl) was then reacted with 0.5 ml DTNB solution (0.3 M sodium phosphate buffer, 10 mM EDTA and 0.2 mM DTNB) and after 5 min the absorbance was read spectrophotometrically at 412 nm (extinction coefficient 14.3 mM^−1 cm^−1).
# [11] = THP-1 cells, 6 h, different concentrations
# [12] = identical concentrations (5 μM)
intracellular reduced glutathione (GSH) (BV2 microglia cells; 24 h),Compound,"concentration from which an increase in HO-1 protein expression starts (HO-1 [1]; THP-1 cells, 6 h)",IL-1β production (IL-1β),toxicity toward human THP-1 cells (human THP-1 cells [2]),HbCO levels [3],CO release in cells (intracellular COP-1 fluorescence) (human THP-1 cells [4]),toxic effect toward H9c2 cardiomyocytes (H9c2 cardiomyocytes),activation of Nrf2 (Nrf2 [5]; [11]),Nrf2 activation compared with CORM-401 and DMF (Nrf2 [5]; [12]),cardiac HO-1 mRNA expression (HO-1 [6]),HO-1 protein expression (HO-1 [1]; [11]),HO-1 activation compared with CORM-401 and DMF (HO-1 [1]; [12]),HO-1 protein expression (summary statement) (HO-1 [7]),cardiac NQO1 mRNA expression (NQO1),HO-1 protein expression (HO-1 [8]),CO release (summary statement) [9],nuclear expression of Nrf2 (summary statement) (Nrf2 [10]),intracellular reduced glutathione (GSH) (BV2 microglia cells; 3 or 6 h)
–,"CN(CC(=O)O)C(=S)[S-].[C-]#[O+].[C-]#[O+].[C-]#[O+].[C-]#[O+].[Mn] [CORM-401, reference compound]",10 fold this concentration is not sufficient,no effect,–,–,–,–,–,–,–,–,–,–,–,–,–,–,–
–,COc1ccc(/C=C/C(=O)OCCN(C)C2=[S][Mn][S]2)cc1OC.[C-]#[O+].[C-]#[O+].[C-]#[O+].[C-]#[O+] [Compound C],1 µM,decreased IL-1β production,do not show significant toxicity,promotes an increase in HbCO levels,significant and high amount of CO,does not cause any visible toxic effect,strongly promoted the activation of Nrf2,more potent than DMF and comparative compound CORM-401,promotes an increase,induction of HO-1 protein expression; also recorded: concentration-dependent increase in HO-1 protein expression,more potent than DMF and comparative compound CORM-401,two fold increase,promotes an increase,induced an increase in HO-1 protein expression; also recorded: significant expression of HO-1,significant amount of CO,two fold increase,–
significant raise,"COC(=O)/C=C/C(=O)OC [DMF, dimethyl fumarate]",10 fold this concentration is not sufficient,no effect,–,–,–,–,–,–,–,–,–,–,–,–,–,–,raised the level of GSH from 6 h of treatment
